Source: US20220312762A1, “USE OF ENCAPSULATED STEROLS TO MODIFY GROWTH OF CROPS, CONTROL, AGRICULTURAL PESTS AND AS NON-TOXIC PRE-EMERGENT HERBICIDES” (The Texas A&M University System, priority 2019, published 2022)

Columns and labels:
[1] = tested on: Arabidopsis thaliana seeds; test: Arabidopsis seed germination on sterol-supplemented media; assay type: in vivo; conditions: for decrease in germination: 100 μM exogenous sterol
Procedure: (§1) Plants and Plant Growth Conditions. Cholesterol (C3045, Sigma-Aldrich, USA), stigmasterol (S2424, Sigma-Aldrich, USA), and β-sitosterol (567152, Millipore-Sigma, USA) were prepared as stock solutions with a slight modification from that described in literature. Sterols were dissolved in 100% ethanol at 1.5 mM concentration and combined with methyl-β-cyclodextrin (MβCD) (Sigma-Aldrich, USA) at a molar ratio of 1:3 to a final concentration of 1-300 μM sterol and 1-900 μM MβCD. The probe was either sonicated for 30 minutes and vortexed for 15 minutes before use, or just vortexed for 30 min before use. To make a powered water soluble form, the sterol (40-70% w/w β-sitosterol) is dissolved in 100% ethanol and then solubilized in β-cyclodextrins or their derivatives in water. The solution is then reduced by evaporation or freeze-drying to a powdered form.
(§2) The wild-type and transgenic seeds of Arabidopsis thaliana were surface-sterilized with 70% ethanol, rinsed in sterile distilled water (+/− sterol) and incubated at 4° C. in the dark for 48 hr. The imbibed seeds were then planted either planted in Petri dishes or in hydroponic containers. For Petri dish growth, 1% (w/v) agar (Sigma-Aldrich, USA) was dissolved in ½ strength Murashige and Skoog medium containing vitamins (Caisson Labs, USA) (+/− sterol), and the pH was adjusted to between 5.6 and 5.8. The seedlings were grown in vertically placed Petri dishes containing this medium for 5-10 days at 22° C. under the continuous white light (50 μmol m^−2sec^−1 photosynthetically active radiation). Hydroponic culture was a modification of that described in previous literature. The seeds were placed on a mesh inserted into the bottom of a sterile polypropylene 2 oz cup with a lid (TY-M2-100, Bingwu, sold on Amazon) inset into either a 4 oz sterile polypropylene cup (TY-M4-N50 Bingwu, sold on Amazon) or a black 5.5 oz sterile polypropylene Dart Conex cup (B07BK1DPPS, Table Top King, sold on Amazon). Enough medium (½ strength Murashige and Skoog medium containing vitamins (Caisson Labs, USA) (+/− sterol), and the pH was adjusted to between 5.6 and 5.8) was added to bring it up to the level of the mesh. They were grown for […] to maturity (˜75 days) in an 18:6 hr photoperiod at 22° C. with 100 […] photosynthetically active. Following growth, they were then harvested for sterol analysis, leaf venation analysis, or fresh and dry weight analysis, or photographed for image analysis of root, hypocotyl, and stem growth and color. Seed from typical crop plants, Nicotiana tabacum (tobacco) and Zea mays (corn) were also sown in defined medium in the presence and absence of encapsulated sterol to assess percent germination after one week. Common weed seeds (Amaranthus palmeri, Poa annua, and Ambrosia sp.) collected from natural sources were either grown in defined media (agar and Mirashige and Skoog medium) or planted in natural soils (sandy loam) in 2 inch inserts in plastic one foot square flats. They were treated with 100-500 microMolar phytosterol mix (40% β-sitosterol, 20% campesterol, 7% stigmasterol (SKU BSIT100, Bulk Supplements) with a 3:1 molar ratio of methyl-β-cyclodextrin in water. Growth was assessed in treated and untreated (only water) by seedling emergence in days after planting in a greenhouse with natural lighting.
(§3) Materials and Methods. Arabidopsis seeds were given a pre-cold treatment with a mixture of sterol, cholesterol (Sigma-Aldrich) or stigmasterol (Sigma-Aldrich) (1 microMolar, 10 microMolar and 100 microMolar) and methyl-β-cyclodextrin (Sigma-Aldrich) (1:3 ratio) and then planted on Murashige and Skoog-½ strength (Caisson's Lab) 1% agar media supplemented with a mixture of respective sterol and cyclodexterin (1:3 ratio). Common weed seeds (Amaranthus palmeri, Poa annua, and Ambrosia sp.) collected from natural sources were planted in natural soils (sandy loam) in 2 inch inserts in plastic one foot square flats. […]

[2] = tested on: Arabidopsis thaliana; test: Arabidopsis growth and development on sterol-supplemented media; assay type: in vivo; conditions: for growth phenotype: 100 μM exogenous sterol; for root anatomy: 100 μM sterol; for biomass: 8-days old seedlings on sterol-supplemented media, high sterol (FIG. 5A, 5B); for chlorophyll levels: plants grown on sterol media (FIG. 4A-4D); for root and root hair growth and development: sterol-supplemented media (FIG. 3A-3E)
Procedure: as §1, §2, §3

[3] = 10 microMolar encapsulated sterol
[4] = 100 microMolar encapsulated sterol

CC(C)CCC[C@@H](C)[C@H]1CC[C@H]2[C@@H]3CC=C4C[C@@H](O)CC[C@]4(C)[C@H]3CC[C@]12C [cholesterol, Cholesterol]
decrease in germination [1]: 40%
seed germination (in words) [1, 3]: seeds germinate
seed germination (in words) [1, 4]: significantly inhibit
germination inhibited ([1]; 300 microMolar encapsulated sterol, after a week of growth (FIG. 6A)): 90%
vein pattern ([2]; 100 μM): altered vein pattern
growth phenotype [2]: severe dwarfism
root anatomy [2]: altered root anatomy
biomass [2]: reduced biomass
chlorophyll levels [2]: change chlorophyll levels
root and root hair growth and development [2]: alters

CC[C@H](/C=C/[C@@H](C)[C@H]1CC[C@H]2[C@@H]3CC=C4C[C@@H](O)CC[C@]4(C)[C@H]3CC[C@]12C)C(C)C [stigmasterol]
decrease in germination [1]: 35%
seed germination (in words) [1, 3]: seeds germinate
seed germination (in words) [1, 4]: significantly inhibit
growth phenotype [2]: severe dwarfism
root anatomy [2]: altered root anatomy
biomass [2]: reduced biomass
chlorophyll levels [2]: change chlorophyll levels
root and root hair growth and development [2]: alters
